In publication PMC4513902, “Evaluation of a new radiolabeled bombesin derivative with ^99mTc as potential targeted tumor imaging agent” (Journal of Radioanalytical and Nuclear Chemistry, 2013):
Where two headings read alike, the source gives them in different places.

Columns and labels:
[1] = Biodistribution in nude mice bearing PC-3 tumors; assay type: in vivo, mouse
Procedure: Animal experiments were performed in compliance with the regulations of our institution and with generally accepted guidelines governing such a work. A suspension of human PC-3 cells (1 × 10^7) in PBS buffer was subcutaneously injected in the right flank of each nude mouse. Seven to 10 days after inoculation, the tumors were inducted and then an activity of 20 MBq (0.35 nmol) of ^99mTc-Bombesin was injected via the femoral vein. In order to determine the non-specific uptake of the radiopeptides, in receptor-positive organs, a group of 3 animals were injected with 100 μg cold peptide in 50 μl saline as a co-injection with the radiopeptides (blocked animals). After 1, 4 and 24 h, the mice in groups of 3 animals were scarified, organs of interest were collected, weighed and radioactivity was measured in a gamma counter. The percentage of the injected dose per gram (% ID/g) was calculated for each tissue.

[2] = test system: human GRP receptor cell line PC-3; experiment: Internalization assay in PC-3 cells; assay type: cell-based; settings: 1 million cells per well, about 150 kBq (2.5 pmol total peptide) per well, acid resistant fraction, gamma counter
Procedure: The human androgen-independent prostate carcinoma cell line PC-3 was obtained from National Cell Bank of Iran (NCBI) affiliated to Pasteur Institute of Iran. The cells were grown in DMEM supplemented with 10 % (v/v) fetal bovine serum (FBS), 1 % L-glutamine (2 mM),1 % penicillin(100 IU/ml)/streptomycin(100 μg/ml) and 1 % amphotericin B(0.25 μg/ml). The cells were incubated at 37 °C in a humidified atmosphere containing 5 % CO2 and were subcultured weekly detaching with trypsin/EDTA solution (0.25 %).
Medium was removed from the 6-well plates contain PC-3 cells with density of 1 million cells per well and cells were washed once with 2 ml of internalization medium (DMEM with 1 % FBS). Furthermore, 1.5 ml internalization medium was added to each well, and the plates were incubated at 37 °C for about 1 h. Afterwards, about 150 kBq (2.5 pmol total peptide mass per well) was added to the medium, and the cells were incubated at 37 °C for various time periods. To determine nonspecific internalization, we incubated cells with the radioligand in the presence of 150 μl, 1 μmol/l Bombesin. The cellular uptake was stopped at appropriate time periods (30 min, 1 h, 2 h and 4 h) by removing medium from the cells and washing twice with 1 ml of ice-cold phosphate-buffered saline (PBS). […] The culture medium, the receptor-bound and internalized fractions were measured radiometrically in a gamma counter.

[3] = Radiochemical stability post labeling at room temperature; assay type: physicochemical
Human serum stability = assay type: in vitro ADME
Procedure: To 1 mL of freshly prepared human serum, we added 100 μl (14.8–29.6 MBq) radiolabeled BB derivative and mixture was incubated at 37 °C. 100 μl aliquots was removed and treated with 200 μl of ethanol at different times up to 24 h. Sample was centrifuged at 3,000 rpm for 15 min to precipitate serum proteins. The supernatant was filtered through a 0.20 μm pore filter and analyzed with RP-HPLC Gradient I to determine radiochemical stability.

PC-3 tumor cell = experiment: Efflux of radiopeptide from PC-3 tumor cells; assay type: cell-based, human; settings: after 4 h
[4] = test system: human GRP receptor cell line PC-3; settings: after 4 h in PC-3; previous compound; cited from earlier work
Excerpt: Compare with our pervious compound [^99mTc-tricine-HYNIC^0-D-Tyr^6-D-Trp^8]

[5] = 1 h after injection, nude mice with PC-3 tumor, 20 MBq (0.35 nmol) via femoral vein, n = 3
[6] = 4 h, unblocked vs. blocked mice, P < 0.05

Substance: [^99mTc/tricine/HYNIC^0, D-Tyr^5-D-Tyr^6-D-Phe^13] Bombesin (5–14) NH2 [new bombesin derivative labeled with ^99mTc via HYNIC and tricine as a coligand]
- uptake in PC-3 tumor [1, 5]: 2.11 ± 0.18 % ID/g
- uptake in pancreas [1, 5]: 1.78 ± 0.09 % ID/g
- Reduction of uptake in pancreas by blocking with cold peptide [1, 6]: 76%
- Reduction of uptake in tumor by blocking with cold peptide [1, 6]: 82%
- internalization into PC-3 cells ([2]; 0.5 h incubation at 37 °C, mean ± SD): 2.3 ± 0.9%
- internalization into PC-3 cells ([2]; 1 h incubation at 37 °C, three independent experiments with triplicates): 5.3 ± 1.1%
- time stable post labeling (radiochemical stability) [3]: ≥ 24 h
- radiochemical purity remaining in human serum (Human serum stability; after 24 h in freshly prepared human serum, 37 °C, 100 μl (14.8–29.6 MBq) in 1 mL serum, ethanol precipitation, RP-HPLC Gradient I): > 90%
- time of good stability in human serum (Human serum stability; human serum at 37 °C, no significant impurities detected by HPLC): at least 24 h
- efflux rate of radiopeptide from PC-3 tumor cell (PC-3 tumor cell): acceptable intercellular trapping

Substance: [^99mTc-tricine-HYNIC^0-D-Tyr^6-D-Trp^8] BB (6–14)
- internalization into PC-3 cells [4]: 10.7 ± 1.2%
